The text below walks through data of paper PMC7576608, “Mechanisms of telomerase inhibition by oxidized and therapeutic dNTPs” (Nature Communications, 2020).

The experiment has as its system telomerase. Nature of the experiment: Direct telomerase assay in the absence or presence of POT1-TPP1 (processivity R1/2). Particulars: for Effect of POT1-TPP1 on telomerase in presence of analog (in words): analog substituted for its natural dNTP. The experiment is classed as biochemical, human. From the text: Next we tested whether the telomerase processivity factor POT1–TPP1 modulates modified dNTP inhibition of telomerase. POT1 binds to the telomeric ssDNA overhang, requiring the minimum sequence of 5′-[…]-3′[38]. Inclusion of POT1-binding partner TPP1, increases the binding affinity for telomeric DNA ten-fold compared to POT1 alone. POT1–TPP1 recruits telomerase to telomeres in vivo[39], and greatly increases telomerase repeat processivity. Therefore, we reasoned that POT1–TPP1 may overcome inhibition by the modified dNTPs and enhance telomerase processivity. We conducted telomerase extension reactions with radiolabeled primer in the presence of POT1–TPP1, and used a primer with a single mutation ([…]; underlined G to C mutation)[40] to ensure POT1–TPP1 is positioned at the 5′ portion of the primer (Fig. 5). This provides a homogenous substrate for telomerase extension.
For these reactions, we replaced the natural dNTP with the modified dNTP analog, while the other dNTPs remained at cellular relevant concentrations.
Direct telomerase assays were conducted in the absence or presence of 500 nM POT1 and 500 nM TPP1, as indicated, and 5 nM ^32P-end labeled primer ([…]) designed to position POT1 at the 10 nt primer 5′ end. Reactions contained cellular-concentration dNTPs (lanes 1 and 2), except when the natural dNTP was substituted with the oxidized dNTP a or therapeutic dNTP b analog (lanes 3–8), as indicated. […] Letters on the right indicate template base; P indicates unextended 18-mer primer. c Processivity was calculated on the basis of total products normalized to loading control. Images are representative of, and data are shown as mean ± s.d. from 3 to 5 independent experiments. Source data are provided as a Source Data file.
The reactions were started by the addition of 3 μl of immunopurified telomerase eluent, incubated at 37 °C for 1 h, then terminated with 2 μl of […] and heat inactivated at 65 °C for 20 min. An equal volume of loading buffer (94% formamide, 0.1× TBE, 0.1% bromophenol blue, 0.1% xylene cyanol) was added to the reaction eluent. The samples were heat denatured for 10 min at 100 °C and loaded onto a 14% denaturing acrylamide gel (7 M urea, 1× TBE) and electrophoresed for 90 min at constant 38 W. Samples were imaged using a Typhoon phosphorimager (GE Healthcare). Percent primer extension was calculated with ImageQuant TL 8.2 by measuring the intensity of each product band and dividing by the total radioactivity in the lane or total products, as indicated in the figure legends.
The processivity was calculated as described[40],[67]. Repeat processivity from the direct telomerase extension assays was calculated as R1/2 (equivalent to the half-time for decay in an exponential time course), which represents the median length of DNA product formed, expressed in terms of number of telomere repeats. First, the total volume counts for each product band extend by one or more telomere repeats were obtained using Image Quant TL. The volume counts were then normalized by dividing by the number of radiolabeled guanosines incorporated into the extended products based on the number of repeats added, termed corrected volume (corr vol). The “percent left behind” (%LB) was calculated for each product band by summing the counts for that product band and for every product band below (shorter products), divided by the total counts for the lane, and then multiplied by 100. The natural log of (100−%LB) was calculated and then plotted vs. repeat number for each product length. A linear regression line was fit to the data to determine the slope of the line.

Molecules are shown by their SMILES.

Consider `Nc1nc(O)nc2c1ncn2C1CC(O)C(COP(=O)(O)OP(=O)(O)OP(=O)(O)O)O1` (stereo not drawn) [2-OH-dATP], for which the “Fold enhancement of repeat processivity by POT1-TPP1” value (2-OH-dATP replaced dATP) amounted to 5 fold. With `Nc1nc2c(ncn2C2CC(O)C(COP(=O)(O)OP(=O)(O)OP(=O)(O)O)O2)c(=S)[nH]1` (stereo not drawn) [6-thio-dGTP], the “Effect of POT1-TPP1 on telomerase in presence of analog (in words)” value (“Effect of POT1-TPP1 … of analog (in words)” below) is given as “failed to stimulate telomerase”. For `Nc1ncnc2c1[nH]c(=O)n2C1CC(O)C(COP(=O)(O)OP(=O)(O)OP(=O)(O)O)O1` (stereo not drawn) [8-oxo-dATP], the “Effect of POT1-TPP1 … of analog (in words)” value is given as “some POT1–TPP1 stimulation”.

Regarding `Nc1nc2c([nH]c(=O)n2C2CC(O)C(COP(=O)(O)OP(=O)(O)OP(=O)(O)O)O2)c(=O)[nH]1` (stereo not drawn) [8-oxo-dGTP], the “Effect of POT1-TPP1 … of analog (in words)” value is reported as “unable to overcome the chain termination”. `Cc1cn([C@H]2C[C@H](N=[N+]=[N-])[C@@H](CO[P@](=O)(O)O[P@](=O)(O)OP(=O)(O)O)O2)c(=O)[nH]c1=O` [AZT-TP]: the “Effect of POT1-TPP1 … of analog (in words)” value was “failed to stimulate telomerase processivity”. For `O=c1[nH]cnc2c1ncn2C1CCC(COP(=O)(O)OP(=O)(O)OP(=O)(O)O)O1` (stereo not drawn) [ddITP], the “Effect of POT1-TPP1 … of analog (in words)” value is “failed to stimulate telomerase processivity”.
